This passage reports IC50 results from ChEMBL document CHEMBL4033793, “Potent and Selective Inhibitors of Human Sirtuin 5” (J Med Chem, 2018).

The test deals with NAD-dependent protein deacylase sirtuin-5, mitochondrial (Homo sapiens, UniProt Q9NXA8). Description: Inhibition of human recombinant N-terminal Strep2-tagged SIRT5 expressed in Escherichia coli BL21 (DE3) using Abz-GVLK(glutaryl)AY(NO2)GV-NH2 as substrate in presence of NAD+ by fluorescence assay.

Residues, ends and D or L forms follow the SMILES beside them. *: point of attachment. X46 = CC(C)(C)c1ccc(CS[C@@H](CC(=O)*)C(=O)O)cc1; X28 = O=C(O)[C@@H](CC(=O)*)Sc1ccc(Cl)c(Cl)c1; X23 = O=C(O)[C@@H](CC(=O)*)Sc1cccc2ccccc12; X30 = COc1ccc(S[C@H](CC(=O)*)C(=O)O)cc1OC; X31 = O=C(O)[C@H](CC(=O)*)Sc1cccc(Cl)c1Cl; X10 = Cc1noc(C)c1CCS[C@H](CC(=O)*)C(=O)O; X14 = O=C(O)[C@H](CC(=O)*)SCc1ccc(Cl)cc1; X33 = Cc1ccc(S[C@@H](CC(=O)*)C(=O)O)cc1C; X48 = O=C(O)[C@@H](CC(=O)*)SCCCc1ccccc1; X68 = Cc1ccc(S[C@H](CC(=O)*)C(=O)O)cc1C; X26 = O=C(O)[C@@H](CC(=O)*)SCCc1ccccc1; Bz = O=C(c1ccccc1)*

NAD-dependent protein deacylase sirtuin-5, mitochondrial, sequence (Q9NXA8 whole entry): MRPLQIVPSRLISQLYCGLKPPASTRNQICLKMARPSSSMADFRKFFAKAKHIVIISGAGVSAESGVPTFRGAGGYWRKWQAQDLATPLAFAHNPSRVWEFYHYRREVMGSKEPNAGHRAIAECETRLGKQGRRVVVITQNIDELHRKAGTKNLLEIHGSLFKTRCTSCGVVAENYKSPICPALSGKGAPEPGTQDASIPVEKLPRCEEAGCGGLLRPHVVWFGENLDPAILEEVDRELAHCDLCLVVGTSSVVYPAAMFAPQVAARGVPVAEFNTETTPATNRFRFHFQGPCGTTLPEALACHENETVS

For the compound `Cc1ccc(S[C@H](CC(=O)NCCCC[C@H](NC(=O)[C@H](CC(C)C)NC(=O)[C@@H](NC(=O)CNC(=O)c2ccccc2)C(C)C)C(=O)N[C@@H](CCC(=O)O)C(=O)N[C@@H](Cc2ccc(O)cc2)C(=O)NCC(=O)N[C@H](C(N)=O)C(C)C)C(=O)O)cc1C` (Bz-GVLK(X68)EYGV-NH2), the half-inhibitory concentration (IC50) is 1260 nM. For `Cc1ccc(S[C@@H](CC(=O)NCCCC[C@H](NC(=O)[C@H](CC(C)C)NC(=O)[C@@H](NC(=O)CNC(=O)c2ccccc2)C(C)C)C(=O)N[C@@H](CCC(=O)O)C(=O)N[C@@H](Cc2ccc(O)cc2)C(=O)NCC(=O)N[C@H](C(N)=O)C(C)C)C(=O)O)cc1C` (Bz-GVLK(X33)EYGV-NH2), the IC50 is 46.1 nM. Take `CNC(=O)c1cccc(NC(=O)C[C@H](Sc2ccc3ccccc3c2)C(=O)O)c1`: the IC50 turned out to be 90000 nM. Next, `CC(C)C[C@H](NC(=O)[C@@H](NC(=O)CNC(=O)c1ccccc1)C(C)C)C(=O)N[C@@H](CCCCNC(=O)C[C@H](SCc1ccc(C(C)(C)C)cc1)C(=O)O)C(=O)N[C@@H](CCC(=O)O)C(=O)N[C@@H](Cc1ccc(O)cc1)C(=O)NCC(=O)N[C@H](C(N)=O)C(C)C` (Bz-GVLK(X46)EYGV-NH2): 793 nM; `COc1ccc(S[C@H](CC(=O)NCCCC[C@H](NC(=O)[C@H](CC(C)C)NC(=O)[C@@H](NC(=O)CNC(=O)c2ccccc2)C(C)C)C(=O)N[C@@H](CCC(=O)O)C(=O)N[C@@H](Cc2ccc(O)cc2)C(=O)NCC(=O)N[C@H](C(N)=O)C(C)C)C(=O)O)cc1OC` (Bz-GVLK(X30)EYGV-NH2): 9080 nM; `CC(C)C[C@H](NC(=O)[C@@H](NC(=O)CNC(=O)c1ccccc1)C(C)C)C(=O)N[C@@H](CCCCNC(=O)C[C@@H](SCCCc1ccccc1)C(=O)O)C(=O)N[C@@H](CCC(=O)O)C(=O)N[C@@H](Cc1ccc(O)cc1)C(=O)NCC(=O)N[C@H](C(N)=O)C(C)C` (Bz-GVLK(X48)EYGV-NH2): 2060 nM. For the compound `CC(C)C[C@H](NC(=O)[C@@H](NC(=O)CNC(=O)c1ccccc1)C(C)C)C(=O)N[C@@H](CCCCNC(=O)C[C@@H](SCCc1ccccc1)C(=O)O)C(=O)N[C@@H](CCC(=O)O)C(=O)N[C@@H](Cc1ccc(O)cc1)C(=O)NCC(=O)N[C@H](C(N)=O)C(C)C` (Bz-GVLK(X26)EYGV-NH2), the IC50 was found to be 592 nM.

`CC(C)C[C@H](NC(=O)[C@@H](NC(=O)CNC(=O)c1ccccc1)C(C)C)C(=O)N[C@@H](CCCCNC(=O)C[C@@H](Sc1ccc(Cl)c(Cl)c1)C(=O)O)C(=O)N[C@@H](CCC(=O)O)C(=O)N[C@@H](Cc1ccc(O)cc1)C(=O)NCC(=O)N[C@H](C(N)=O)C(C)C` (Bz-GVLK(X28)EYGV-NH2): the concentration for half-maximal inhibition (IC50) came out at 1610 nM.

As to `CC(C)C[C@H](NC(=O)[C@@H](NC(=O)CNC(=O)c1ccccc1)C(C)C)C(=O)N[C@@H](CCCCNC(=O)C[C@H](Sc1cccc(Cl)c1Cl)C(=O)O)C(=O)N[C@@H](CCC(=O)O)C(=O)N[C@@H](Cc1ccc(O)cc1)C(=O)NCC(=O)N[C@H](C(N)=O)C(C)C` (Bz-GVLK(X31)EYGV-NH2), the IC50 came out at 715 nM. With `CC(C)C[C@H](NC(=O)[C@@H](NC(=O)CNC(=O)c1ccccc1)C(C)C)C(=O)N[C@@H](CCCCNC(=O)C[C@H](SCc1ccc(Cl)cc1)C(=O)O)C(=O)N[C@@H](CCC(=O)O)C(=O)N[C@@H](Cc1ccc(O)cc1)C(=O)NCC(=O)N[C@H](C(N)=O)C(C)C` (Bz-GVLK(X14)EYGV-NH2), the IC50 was found to be 893 nM. Next, `CC(C)C[C@H](NC(=O)[C@@H](NC(=O)CNC(=O)c1ccccc1)C(C)C)C(=O)N[C@@H](CCCCNC(=O)C[C@@H](Sc1cccc2ccccc12)C(=O)O)C(=O)N[C@@H](CCC(=O)O)C(=O)N[C@@H](Cc1ccc(O)cc1)C(=O)NCC(=O)N[C@H](C(N)=O)C(C)C` (Bz-GVLK(X23)EYGV-NH2): 2200 nM; `C=CCN1C(=O)/C(=C/c2ccc(-c3cccc(Cl)c3Cl)o2)C(=O)NC1=S`: 25200 nM. In the case of `Cc1noc(C)c1CCS[C@H](CC(=O)NCCCC[C@H](NC(=O)[C@H](CC(C)C)NC(=O)[C@@H](NC(=O)CNC(=O)c1ccccc1)C(C)C)C(=O)N[C@@H](CCC(=O)O)C(=O)N[C@@H](Cc1ccc(O)cc1)C(=O)NCC(=O)N[C@H](C(N)=O)C(C)C)C(=O)O` (Bz-GVLK(X10)EYGV-NH2), the IC50 came to 18500 nM.

The IC50 is the concentration needed to halve the response being measured.
